Data: article doi:10.1101/2023.10.11.561987v1, “Resolving the pharmacological redox-sensitivity of SARS-CoV-2 PLpro in drug repurposing screening enabled identification of the competitive GRL-0617 binding site inhibitor CPI-169” (biorxiv, 2023)

Target: T1, SARS-CoV-2 PLpro-NAB (Severe acute respiratory syndrome coronavirus 2, UniProt P0DTD1)
T1 construct: gene rep; nsp3 fragment with PLpro and NAB domains, cut from replicase polyprotein 1a/1ab; His tag removed by TEV; E. coli BL21(DE3), pET24b
Experiment: biochemical
Format: biochemical

| Compound | IC50 [µM] |
| --- | --- |
| NC(Cc1cc(O)c(O)cc1O)C(=O)O (racemic) [6-Hydroxy-DL-DOPA] | > 20 |
| Cc1nc2c(=O)n(C)c(=O)nc-2n(C)n1 [3-Methyl Toxoflavin] | 0.074 |
